Data on 31 molecules can be found in US20250026769A1, “PAPD5 INHIBITORS AND METHODS OF USE THEREOF” (The Children's Medical Center Corporation, priority 2021, published 2025).

Like-named read-outs stand apart in the source and are kept apart here.

The target in experiment [1] is T1, rPAPD5 (Homo sapiens, UniProt Q8NDF8).
T1 construct: made in house
Kind of experiment: differential scanning fluorimetry (DSF) binding and stabilization of rPAPD5. To be noted: for ΔTm at 100 µM: read-out: ΔTm at 100 μM; for ΔTm at 1 µM: 1 μM test compound (Table 2a), read-out: ΔTm at 1 μM; for ΔTm at 10 µM: 10 μM test compound (Table 2a), read-out: ΔTm at 10 μM. The gist of the method: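 Differential scanning fluorimetry was used to measure how test compounds bind and thermally stabilize rPAPD5. The reaction contained SYPRO orange dye diluted 1:5000 in […] of buffer with […], 25 mM Tris-HCl, 5 mM MgCl2 and 50 mM KCl. ΔTm was calculated relative to a DMSO control.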
On the technique in general: DSF heats the sample and reads unfolding from a dye or from intrinsic fluorescence.

In experiment [2] the test system is TERC 3′ end processing in DC patient iPSCs. Description: TERC 3′ end processing by RACE in DC patient / PARN-mutant iPSCs. The class given is cell-based, human. The conditions noted are these: Homo sapiens, iPSC; patient iPSCs; concentration class at which activity is seen; read-out: iPSC-based RACE activity. As for the experimental part:
Compound 266A had activity ˜2-logs higher in the in vitro RNA oligoadenylation assay compared to the parental compound cmpd. 1, approximating the activity of RG7834 (FIG. 7). […] 1. Compounds 295A and 296A had activity 2-3 logs higher in DC patient iPSCs, showing TERC maturation at 1 nM, similar to RG7834 (FIG. 6). […] Referring to Table 1D, “+” refers to activity at 1 μM, “++” refers to activity above 1 nM and below 1 μM, and “+++” refers to activity at <1 nM, “ND” refers to not determined.

[3] abbreviates: 100 μM test compound, shift vs DMSO control.

T1 sequence (Q8NDF8 68-698 isoform Q8NDF8-5 limits assumed): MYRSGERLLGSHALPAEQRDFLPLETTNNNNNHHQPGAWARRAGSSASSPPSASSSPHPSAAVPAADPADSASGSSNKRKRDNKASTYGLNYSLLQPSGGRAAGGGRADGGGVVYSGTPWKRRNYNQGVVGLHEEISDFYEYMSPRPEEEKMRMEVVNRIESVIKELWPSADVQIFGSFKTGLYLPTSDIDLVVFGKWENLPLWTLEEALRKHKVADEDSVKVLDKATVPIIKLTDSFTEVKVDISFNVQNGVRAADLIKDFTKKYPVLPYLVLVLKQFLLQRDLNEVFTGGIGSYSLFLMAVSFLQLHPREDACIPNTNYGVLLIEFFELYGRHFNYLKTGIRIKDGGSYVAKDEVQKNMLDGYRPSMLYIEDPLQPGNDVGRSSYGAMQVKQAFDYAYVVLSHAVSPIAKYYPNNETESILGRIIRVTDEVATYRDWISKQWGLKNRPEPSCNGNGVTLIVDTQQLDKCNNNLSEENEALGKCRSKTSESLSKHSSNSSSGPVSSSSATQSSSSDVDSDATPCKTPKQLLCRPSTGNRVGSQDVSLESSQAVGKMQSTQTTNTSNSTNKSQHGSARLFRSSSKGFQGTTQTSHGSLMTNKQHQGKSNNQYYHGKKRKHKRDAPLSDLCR

As for `O=C(O)c1cccc(Br)c1Nc1c(S(=O)(=O)N2CCOCC2)cnc2ccc(Cl)cc12` [Compound 282A, 3-bromo-2-[(6-chloro-3-morpholinosulfonyl-4-quinolyl)amino]benzoic acid], the ΔTm at 100 µM in experiment [1] (setting [3]) is over 5 °C.
The same measure, in the same setting: the result for `Cc1cccc(C(=O)O)c1Nc1c(S(=O)(=O)N2CCOCC2)cnc2ccc(Cl)cc12` [Compound 283A, 2-[(6-chloro-3-morpholinosulfonyl-4-quinolyl)amino]-3-methyl-benzoic acid] reads over 5 °C; that for `COc1cccc(C(=O)O)c1Nc1c(S(=O)(=O)N2CCOCC2)cnc2ccc(Cl)cc12` [Compound 284A, 2-[(6-chloro-3-morpholinosulfonyl-4-quinolyl)amino]-3-methoxy-benzoic acid], 1 to 5 °C.
Turning to `O=C(O)c1cccc(C(F)(F)F)c1Nc1c(S(=O)(=O)N2CCOCC2)cnc2ccc(Cl)cc12` [Compound 285A, 2-[(6-chloro-3-morpholinosulfonyl-4-quinolyl)amino]-3-(trifluoromethyl)benzoic acid], the thermal shift (ΔTm) at 100 µM in experiment [1] (setting [3]) is under 1 °C.
Still for that read-out and setting: the result for `O=C(O)c1ccc(B(O)O)cc1Nc1c(S(=O)(=O)N2CCOCC2)cnc2ccc(Cl)cc12` [Compound 289A, 4-borono-2-[(6-chloro-3-morpholinosulfonyl-4-quinolyl)amino]benzoic acid] reads over 5 °C; that for `NS(=O)(=O)c1ccc(Nc2c(S(=O)(=O)N3CCOCC3)cnc3ccc(Cl)cc23)c(C(=O)O)c1` [Compound 290A, 2-[(6-chloro-3-morpholinosulfonyl-4-quinolyl)amino]-5-sulfamoyl-benzoic acid], under 1 °C.
The same measure, in the same setting: the result for `O=S(=O)(c1cnc2ccc(Cl)cc2c1Nc1ccccc1B(O)O)N1CCOCC1` [Compound 292A, [2-[(6-chloro-3-morpholinosulfonyl-4-quinolyl)amino]phenyl]boronic acid] reads 1 to 5 °C; that for `O=C(O)c1cc(C(O)C(F)(F)F)ccc1Nc1c(S(=O)(=O)N2CCOCC2)cnc2ccc(Cl)cc12` (centres unmarked) [Compound 293A, 2-[(6-chloro-3-morpholinosulfonyl-4-quinolyl)amino]-5-(2,2,2-trifluoro-1-hydroxy-ethyl)benzoic acid], 1 to 5 °C.
The same measure, in the same setting: the result for `O=C(O)c1ccccc1Nc1c(C2=CCSCC2)cnc2ccc(Cl)cc12` [Compound 299A, 2-[[6-chloro-3-(3,6-dihydro-2H-thiopyran-4-yl)-4-quinolyl]amino]benzoic acid] reads over 5 °C; that for `O=C(O)c1cc(F)ccc1Nc1c(-c2ncco2)cnc2ccc(Cl)cc12` [Compound 300A, 2-[(6-chloro-3-oxazol-2-yl-4-quinolyl)amino]-5-fluoro-benzoic acid], over 5 °C.
Take `COc1ccc(Nc2c(-c3ncco3)cnc3ccc(Cl)cc23)c(C(=O)O)c1` [Compound 302A, 2-[(6-chloro-3-oxazol-2-yl-4-quinolyl)amino]-5-methoxy-benzoic acid]: the ΔTm at 100 µM in experiment [1] (setting [3]) is over 5 °C.
Consider `O=C(O)c1cc(F)ccc1Nc1c(C2=CCOCC2)cnc2ccc(Cl)cc12` [Compound 304A, 2-[[6-chloro-3-(3,6-dihydro-2H-pyran-4-yl)-4-quinolyl]amino]-5-fluoro-benzoic acid], for which, in experiment [1] (setting [3]), the shift in melting temperature (ΔTm) at 100 µM was over 5 °C.
On the same count and under the same terms, with `COc1ccc(Nc2c(C3=CCOCC3)cnc3ccc(Cl)cc23)c(C(=O)O)c1` [Compound 308A, 2-[[6-chloro-3-(3,6-dihydro-2H-pyran-4-yl)-4-quinolyl]amino]-5-methoxy-benzoic acid] the figure was over 5 °C.
Same read-out and setting: the result for `CCc1ccc(Nc2c(S(=O)(=O)N3CCOCC3)cnc3ccc(Cl)cc23)c(C(=O)O)c1` [Compound 318A, 2-[(6-chloro-3-morpholinosulfony 1-4-quinolyl)amino]-5-ethyl-benzoic acid] reads over 5 °C; that for `CCCc1ccc(Nc2c(S(=O)(=O)N3CCOCC3)cnc3ccc(Cl)cc23)c(C(=O)O)c1` [Compound 319A, 2-[(6-chloro-3-morpholinosulfonyl-4-quinolyl)amino]-5-propyl-benzoic acid], 1 to 5 °C; that for `CC(C)c1ccc(Nc2c(S(=O)(=O)N3CCOCC3)cnc3ccc(Cl)cc23)c(C(=O)O)c1` [Compound 320A, 2-[(6-chloro-3-morpholinosulfonyl-4-quinolyl)amino]-5-isopropyl-benzoic acid], 1 to 5 °C.
Turning to `O=C(O)c1ccccc1Nc1c(S(=O)(=O)N2CCOCC2)cnc2ccc(B(O)O)cc12` [Compound 321A, 2-[(6-borono-3-morpholinosulfonyl-4-quinolyl)amino]benzoic acid], the ΔTm at 100 µM in experiment [1] (setting [3]) is under 1 °C.
Take `O=C(O)c1ccccc1Nc1c(S(=O)(=O)N2CCOCC2)cnc2ccc(O)cc12` [Compound 322A, 2-[(6-hydroxy-3-morpholinosulfonyl-4-quinolyl)amino]benzoic acid]: in experiment [1] (setting [3]), the ΔTm at 100 µM was over 5 °C.
For the molecule `O=C(O)c1ccccc1Nc1c(C2CCS(=O)(=O)CC2)c[n+]([O-])c2ccc(Cl)cc12` [Compound 323A, 2-[[6-chloro-3-(1,1-dioxothian-4-yl)-1-oxido-quinolin-1-ium-4-yl]amino]benzoic acid], the ΔTm at 100 µM in experiment [1] (setting [3]) is over 5 °C.
`O=C(O)c1c(Nc2c(S(=O)(=O)N3CCOCC3)cnc3ccc(Cl)cc23)ccc(Cl)c1O` [Compound 324A, 3-chloro-6-[(6-chloro-3-morpholinosulfonyl-4-quinolyl)amino]-2-hydroxy-benzoic acid]: the ΔTm at 100 µM in experiment [1] (setting [3]) is over 5 °C.
Regarding `O=C(O)c1ccccc1Sc1c(S(=O)(=O)N2CCOCC2)cnc2ccc(Cl)cc12` [Compound 328A], the ΔTm at 100 µM in experiment [1] is 1 to 5 °C.
Regarding `O=C(O)c1cc(Cl)ccc1Sc1c(S(=O)(=O)N2CCOCC2)cnc2ccc(Cl)cc12` [Compound 330A, 5-chloro-2-[(6-chloro-3-morpholinosulfonyl-4-quinolyl)sulfanyl]benzoic acid], the ΔTm at 100 µM in experiment [1] (setting [3]) is over 5 °C.
`N#Cc1ccc(Nc2c(S(=O)(=O)N3CCOCC3)cnc3ccc(Cl)cc23)c(C(=O)O)c1` [Compound 338A, 2-[(6-chloro-3-morpholinosulfonyl-4-quinolyl)amino]-5-cyano-benzoic acid]: the ΔTm at 100 µM in experiment [1] (setting [3]) was over 5 °C.
`O=C(O)c1cc(Cl)ccc1Nc1c(C2CCNC2)cnc2ccc(Cl)cc12` (centres unmarked) [Compound 357A, 5-chloro-2-((6-chloro-3-(pyrrolidin-3-yl)quinolin-4-yl)amino)benzoic acid]: the minimal effective concentration in experiment [2] turned out to be 1 µM. In experiment [1], the ΔTm at 1 µM is over 5 °C and the ΔTm at 10 µM was over 5 °C. Further, the thermal shift (ΔTm) at 100 µM in experiment [1] (setting [3]) is over 5 °C.
For the molecule `O=C(O)c1cc(Cl)ccc1Nc1c(-c2nnn[nH]2)cnc2ccc(Cl)cc12` [Compound 359A, 5-chloro-2-[[6-chloro-3-(1H-tetrazol-5-yl)-4-quinolyl]amino]benzoic acid], in experiment [1], the thermal shift (ΔTm) at 1 µM is over 5 °C and the ΔTm at 10 µM was over 5 °C. In addition, the ΔTm at 100 µM in experiment [1] (setting [3]) was over 5 °C.
For `O=C(O)c1cc(Cl)ccc1Nc1c(N2CCNCC2)cnc2ccc(Cl)cc12` [Compound 362A, 5-chloro-2-[(6-chloro-3-piperazin-1-yl-4-quinolyl)amino]benzoic acid], the minimal effective concentration in experiment [2] was 1 µM. Moreover, in experiment [1], the ΔTm at 1 µM is over 5 °C and the ΔTm at 10 µM is over 5 °C. The ΔTm at 100 µM in experiment [1] (setting [3]) was over 5 °C.
As for `O=C(O)c1cc(Cl)ccc1Nc1c(C2=CCNCC2)cnc2ccc(Cl)cc12` [Compound 368A, 5-chloro-2-[[6-chloro-3-(1,2,3,6-tetrahydropyridin-4-yl)-4-quinolyl]amino]benzoic acid], the minimal effective concentration in experiment [2] stood at 1 µM. For the same molecule, in experiment [1], the ΔTm at 1 µM was over 5 °C and the ΔTm at 10 µM is over 5 °C. In addition, the shift in melting temperature (ΔTm) at 100 µM in experiment [1] (setting [3]) is over 5 °C.
Consider `O=C(O)c1cc(Cl)ccc1Nc1c(C(=O)N2CCOCC2)cnc2ccc(Cl)cc12` [Compound 372A, 5-chloro-2-[[6-chloro-3-(morpholine-4-carbonyl)-4-quinolyl]amino]benzoic acid], for which the minimal effective concentration in experiment [2] stood at 1 µM. Moreover, in experiment [1], the ΔTm at 1 µM is over 5 °C and the ΔTm at 10 µM was over 5 °C. The shift in melting temperature (ΔTm) at 100 µM in experiment [1] (setting [3]) is over 5 °C.
Regarding `NC(=O)c1ccc(Nc2c(S(=O)(=O)N3CCOCC3)cnc3ccc(Cl)cc23)c(C(=O)O)c1` [Compound 373A, 5-carbamoyl-2-[(6-chloro-3-morpholinosulfonyl-4-quinolyl)amino]benzoic acid], the ΔTm at 100 µM in experiment [1] lay within 1 to 5 °C.
For `O=C(O)c1ccc(Nc2c(S(=O)(=O)N3CCOCC3)cnc3ccc(Cl)cc23)c(C(=O)O)c1` [Compound 398A, 4-[(6-chloro-3-morpholinosulfonyl-4-quinolyl)amino]benzene-1,3-dicarboxylic acid], the ΔTm at 100 µM in experiment [1] (setting [3]) is under 1 °C.
Take `O=C(O)c1cc(Cl)ccc1Nc1c(S(=O)(=O)N2CCS(=O)(=O)CC2)cnc2ccc(Cl)cc12` [Compound 429A, 5-chloro-2-[[6-chloro-3-[(1,1-dioxo-1,4-thiazinan-4-yl)sulfonyl]-4-quinolyl]amino]benzoic acid]: in experiment [1], the ΔTm at 1 µM is over 5 °C and the shift in melting temperature (ΔTm) at 10 µM is over 5 °C. In experiment [1] (setting [3]), the ΔTm at 100 µM was over 5 °C.

As usually defined, the ΔTm is the shift of the melting midpoint relative to a reference.
